Consider one compound from patent US6558954B1, “Phenotypic conversion of cells mediated by external guide sequences” (priority 1996, dated 2003).

This test has as its system bacterial species tested. Put plainly: TMP-mediated delivery of EGS, overall statement for the bacterial species tested. It is filed as cell-based. The note with it: E. coli, P. aeruginosa, S. aureus, B. subtilis (FIG. 2). The text has this:
The results in Example 1 indicate enhanced delivery of a nucleic acid to the Gram negative organism E. coli. […] Staphylococcus aureus (Gram positive), Pseudomonas aeruginosa (Gram negative) and Bacillus subtilis (Gram positive) were obtained from the ATCC and grown overnight. The bacteria were washed with TB and resuspended to give an OD of 1.0. TMP/EGS complexes were set up as in Example 1 and delivered to the cells.
The cells were washed three times with TB and then treated with lysozyme solutions with EDTA (for Gram negative) or without EDTA (for Gram positive) according to the protocol of Merchant et al., J. Photochem. Photobiol. B: Biol. 32:153-157 (1996). The amount of EGS present in the cell pellet and the cell wall fraction was calculated following scintillation counting.

With `C[n+]1ccc(-c2c3nc(c(-c4cc[n+](C)cc4)c4ccc([nH]4)c(-c4cc[n+](C)cc4)c4nc(c(-c5cc[n+](C)cc5)c5ccc2[nH]5)C=C4)C=C3)cc1` [TMP, tetra meso (n-methyl 4-pyridyl)porphine], the “ability of TMP to deliver EGS” value is listed as “able to deliver EGS to the bacterial species tested”.
